# Measurements as given in US6046228A, “Anti-viral pharmaceutical compositions containing saturated 1,2-dithiaheterocyclic compounds and uses thereof” (priority 1999, dated 2000).
# Like-named read-outs stand apart in the source and are kept apart here.
# How the values were obtained:
# [1] = tested on: HIV-1ADA; test: antiviral assay in monocyte-macrophage cultures (p24); assay type: cell-based; conditions: Human immunodeficiency virus 1
# Procedure: Initial anti-HIV screening was performed with CEM-SS cells and HIV-1RFusing the XTT cytoprotection assay as previously described (Weislow et al., J. National Cancer Inst. 81: 577-586, (1989)). HIV-1 isolates included common laboratory stains (RF, IIIB and MN), as well as a panel of HIV-1 clinical isolates (Cushman et al., J. Med. Chem. 37: 3040-3050, (1994)). The pyridone-resistant HIV-1A17 isolate (Nunberg et al., J. Virol., 65: 4887-4892 (1991)) was obtained from Emilio Emini at Merck Sharpe and Dohme Laboratories. Phytohemagglutinin-stimulated human peripheral blood lymphocytes (PBLs) and fresh monocyte-macrophage (Mono/MF) cultures were prepared and utilized in antiviral assays as previously described (Rice et al., Proc. Nat'l. Academy Science, USA 90: 9721-9724, (1993)); (Cushman et al., J. Med. Chem. 37: 3040-3050, (1994)). EC50 values for these cultures indicate the drug concentration that provided a 50% reduction in viral p24 production. […] The compounds can be synthesized according to the teachings of Singh et al., Sulfur Letters 8: 107-114, (1988). The 4,5-cis-dihydroxy(1,1-dioxy-1,2,-dithiohexane) compound (NSC 624151) has been abbreviated as 624151 for convenience. MT-2, MT-4, U1, HeLa-CD4-LTR-β-gal and 174xCEM cells were obtained from the AIDS Research and Reference Program (National Institute of Allergy and Infectious Disease, National Institutes of Health, Bethesda, Md. USA), as were the HIV-2MS and the AZT-resistant HIV-1G910-6 isolates. […]
# [2] = tested on: HIV-1IIIB; test: XTT cytopathicity assay, HIV-1IIIB; assay type: cell-based
# Procedure: Initial anti-HIV screening was performed with CEM-SS cells and HIV-1RFusing the XTT cytoprotection assay as previously described (Weislow et al., J. National Cancer Inst. 81: 577-586, (1989)). HIV-1 isolates included common laboratory stains (RF, IIIB and MN), as well as a panel of HIV-1 clinical isolates (Cushman et al., J. Med. Chem. 37: 3040-3050, (1994)). The pyridone-resistant HIV-1A17 isolate (Nunberg et al., J. Virol., 65: 4887-4892 (1991)) was obtained from Emilio Emini at Merck Sharpe and Dohme Laboratories. Phytohemagglutinin-stimulated human peripheral blood lymphocytes (PBLs) and fresh monocyte-macrophage (Mono/MF) cultures were prepared and utilized in antiviral assays as previously described (Rice et al., Proc. Nat'l. Academy Science, USA 90: 9721-9724, (1993)); (Cushman et al., J. Med. Chem. 37: 3040-3050, (1994)). EC50 values for these cultures indicate the drug concentration that provided a 50% reduction in viral p24 production. […] The compounds can be synthesized according to the teachings of Singh et al., Sulfur Letters 8: 107-114, (1988). The 4,5-cis-dihydroxy(1,1-dioxy-1,2,-dithiohexane) compound (NSC 624151) has been abbreviated as 624151 for convenience. MT-2, MT-4, U1, HeLa-CD4-LTR-β-gal and 174xCEM cells were obtained from the AIDS Research and Reference Program (National Institute of Allergy and Infectious Disease, National Institutes of Health, Bethesda, Md. USA), as were the HIV-2MS and the AZT-resistant HIV-1G910-6 isolates.
# ^a Anti-HIV studies utilizing lymphocytederived cell lines were
# performed using the XTT cytopathicity assay, while antiviral assays
# [3] = tested on: fusion of cells expressing CD4 and gp120; test: fusion of target cells expressing CD4 and gp120; assay type: cell-based; conditions: in words
# [4] = biological target: T1, HIV-1 integrase (Human immunodeficiency virus type 1 group M subtype B, UniProt P04585); test: HIV-1 integrase activity; assay type: biochemical
# T1 construct: the purified HIV-1 protease and integrase enzymes
# [5] = tested on: HIV-1RF virions; test: viral inactivation assay, HeLa-CD4-LTR-βgal cells; assay type: cell-based; conditions: FIG. 2(B), in words
# Procedure: HeLa-CD4-LTR-βgal cells (1.5×10^4 /well) were plated in 200 μl volume in flat bottom 96-well microtiter plates for 24 hours, after which the fluid was removed and replaced with drug-treated samples. The HIV-1RF stock was treated with various concentrations NSC 624151 for 2 hours at 37° C., followed by centrifugation (18,000×g for 1 hour at 4° C.) to remove compound from the virus, preparation of serial two-fold dilutions and plating of 200 μl of each dilution in triplicate onto the cell monolayer. The cultures were then incubated for 4 additional days, and monolayers were then fixed for 5 minutes with 2% formaldehyde/2% glutaraldehyde, washed twice with cold PBS and then stained with X-gal substrate for 24 hours at 37° C. The number of blue-stained cells (each indicating a single infectious unit) were then counted in each well and the number of infectious units per ml (mean±SD) of sample were determined values calculated.
structure (smiles),measurement,setting,value
"O=S1(=O)C[C@H](O)[C@H](O)CS1 (relative stereo) [NSC 624151, cis-1,1-dioxo[1,2]dithiane-4,5-diol]",EC50,"[1]; HIV-1ADA, monocyte/macrophage cultures, 50% reduction in p24, read-out: Mo/M.PHI. EC50",8 µM
same,EC50,"[1]; Mo/M.PHI., ADA, cell-free p24, Table 2, read-out: EC50",2.1 µM
same,EC50,"[2]; Human immunodeficiency virus 1, AA5(B, EBV+), HIV-1IIIB",2.6e-05 M
same,EC50,"[2]; Human immunodeficiency virus 1, CEM-SS, CEM-SS (T), HIV-1IIIB, cell type panel",6.1e-06 M
same,EC50,"[2]; Human immunodeficiency virus 1, H9(T), HIV-1IIIB",1.3e-05 M
same,EC50,"[2]; Human immunodeficiency virus 1, MT-2(T), HIV-1IIIB",1.88e-05 M
same,EC50,"[2]; Human immunodeficiency virus 1, U-937, U937(M), HIV-1IIIB",3.2e-06 M
same,EC50,"[2]; Human immunodeficiency virus 1, CEM-SS, IIIB, Laboratory HIV-1",2.08e-05 M
same,inhibition of infection by HIV-1IIIB in all cellular phenotypes tested,[2]; in words,inhibited by 624151 in all cellular phenotypes tested
same,inhibition of fusion,[3],did not inhibit
same,inhibition of HIV-1 integrase,[4]; in words,not inhibited
same,IC50,[4]; read-out: Integrase ID50,> 100 µM
same,inactivation of viral infectivity,[5],enter intact virions and inactivate the viral infectivity
same,inactivation of viral infectivity,[5]; listed as 624151,concentration-dependant inactivation of viral infectivity
